Experiments:
Type in all cases: cell-based, human
[1] = system: MDA-MB-231/ATCC; experiment: NCI60 screening, Breast Cancer, MDA-MB-231/ATCC
[2] = system: NCI-H322M; experiment: NCI60 screening, Non-Small Cell Lung Cancer, NCI-H322M
[3] = system: SF-539; experiment: NCI60 screening, CNS Cancer, SF-539
[4] = system: 786-0; experiment: NCI60 screening, Renal Cancer, 786-0
[5] = system: SW-620; experiment: NCI60 screening, Colon Cancer, SW-620
[6] = system: MOLT-4; experiment: NCI60 screening, Leukemia, MOLT-4
[7] = system: A549/ATCC; experiment: NCI60 screening, Non-Small Cell Lung Cancer, A549/ATCC
[8] = system: CCRF-CEM; experiment: NCI60 screening, Leukemia, CCRF-CEM
[9] = system: RPMl-8226; experiment: NCI60 screening, Leukemia, RPMl-8226
[10] = system: SF-295; experiment: NCI60 screening, CNS Cancer, SF-295
[11] = system: HT29; experiment: NCI60 screening, Colon Cancer, HT29
[12] = system: HS 578T; experiment: NCI60 screening, Breast Cancer, HS 578T
[13] = system: SNB-75; experiment: NCI60 screening, CNS Cancer, SNB-75
[14] = system: U251; experiment: NCI60 screening, CNS Cancer, U251
[15] = system: NCI-H460; experiment: NCI60 screening, Non-Small Cell Lung Cancer, NCI-H460
[16] = Homo sapiens, read-out: LC50 (the source's name)

## Cc1ccc2c(c1)c(CO)cn2S(=O)(=O)c1ccc(Cl)c([N+](=O)[O-])c1 [OSU-A9M, [1-(4-chloro-3-nitro-benzenesulfonyl)-5-methyl-1H-indol-3-yl]-methanol]
[1]
  TGI: 2.96E−6
[1]; Homo sapiens
  GI50: 1440 nM
[1]; [16]
  CC50: 6100 nM
[1]; Log10 Concentration −4.0
  Percent Growth: −78%
[1]; Log10 Concentration −5.0
  Percent Growth: −84%
[1]; Log10 Concentration −6.0
  Percent Growth: 75%
[1]; Log10 Concentration −7.0
  Percent Growth: 91%
[1]; Log10 Concentration −8.0
  Percent Growth: 98%
[2]
  TGI: 3.10E−6
[2]; Homo sapiens
  GI50: 1680 nM
  LC50: 5710 nM
[2]; Log10 Concentration −4.0
  Percent Growth: −93%
[2]; Log10 Concentration −5.0
  Percent Growth: −96%
[2]; Log10 Concentration −6.0
  Percent Growth: 93%
[2]; Log10 Concentration −7.0
  Percent Growth: 89%
[2]; Log10 Concentration −8.0
  Percent Growth: 91%
[3]
  TGI: 2.94E−6
[3]; Homo sapiens
  GI50: 1600 nM
[3]; [16]
  CC50: 5420 nM
[3]; Log10 Concentration −4.0
  Percent Growth: −100%
[3]; Log10 Concentration −5.0
  Percent Growth: −100%
[3]; Log10 Concentration −6.0
  Percent Growth: 88%
[3]; Log10 Concentration −7.0
  Percent Growth: 94%
[3]; Log10 Concentration −8.0
  Percent Growth: 93%
[4]
  TGI: 3.22E−6
[4]; Homo sapiens
  GI50: 1780 nM
[4]; [16]
  CC50: 5830 nM
[4]; Log10 Concentration −4.0
  Percent Growth: −100%
[4]; Log10 Concentration −5.0
  Percent Growth: −95%
[4]; Log10 Concentration −6.0
  Percent Growth: 98%
[4]; Log10 Concentration −7.0
  Percent Growth: 98%
[4]; Log10 Concentration −8.0
  Percent Growth: 96%
[5]
  TGI: 2.44E−6
[5]; Homo sapiens
  GI50: 1210 nM
[5]; [16]
  CC50: 4940 nM
[5]; Log10 Concentration −4.0
  Percent Growth: −100%
[5]; Log10 Concentration −5.0
  Percent Growth: −100%
[5]; Log10 Concentration −6.0
  Percent Growth: 63%
[5]; Log10 Concentration −7.0
  Percent Growth: 90%
[5]; Log10 Concentration −8.0
  Percent Growth: 96%
[6]
  TGI: 1.96E−6
[6]; Homo sapiens
  GI50: 334 nM
  LC50: 18300 nM
[6]; Log10 Concentration −4.0
  Percent Growth: −64%
[6]; Log10 Concentration −5.0
  Percent Growth: −45%
[6]; Log10 Concentration −6.0
  Percent Growth: 19%
[6]; Log10 Concentration −7.0
  Percent Growth: 85%
[6]; Log10 Concentration −8.0
  Percent Growth: 92%
[7]
  TGI: 4.89E−6
[7]; Homo sapiens
  GI50: 2050 nM
[7]; [16]
  CC50: > 100000 nM
[7]; Log10 Concentration −4.0
  Percent Growth: −47%
[7]; Log10 Concentration −5.0
  Percent Growth: −41%
[7]; Log10 Concentration −6.0
  Percent Growth: 91%
[7]; Log10 Concentration −7.0
  Percent Growth: 94%
[7]; Log10 Concentration −8.0
  Percent Growth: 95%
[8]
  TGI: 2.58E−6
[8]; Homo sapiens
  GI50: 300 nM
[8]; [16]
  CC50: 87400 nM
[8]; Log10 Concentration −4.0
  Percent Growth: −52%
[8]; Log10 Concentration −5.0
  Percent Growth: −21%
[8]; Log10 Concentration −6.0
  Percent Growth: 14%
[8]; Log10 Concentration −7.0
  Percent Growth: 82%
[8]; Log10 Concentration −8.0
  Percent Growth: 84%
[9]
  TGI: 3.80E−6
[9]; Homo sapiens
  GI50: 1580 nM
[9]; [16]
  CC50: 9140 nM
[9]; Log10 Concentration −4.0
  Percent Growth: −68%
[9]; Log10 Concentration −5.0
  Percent Growth: −55%
[9]; Log10 Concentration −6.0
  Percent Growth: 76%
[9]; Log10 Concentration −7.0
  Percent Growth: 84%
[9]; Log10 Concentration −8.0
  Percent Growth: 93%
[10]
  TGI: 3.07E−6
[10]; Homo sapiens
  GI50: 1620 nM
[10]; [16]
  CC50: 5810 nM
[10]; Log10 Concentration −4.0
  Percent Growth: −86%
[10]; Log10 Concentration −5.0
  Percent Growth: −93%
[10]; Log10 Concentration −6.0
  Percent Growth: 88%
[10]; Log10 Concentration −7.0
  Percent Growth: 91%
[10]; Log10 Concentration −8.0
  Percent Growth: 77%
[11]
  TGI: 1.59E−6
[11]; Homo sapiens, HT-29
  GI50: 434 nM
[11]; Homo sapiens, HT-29, read-out: LC50 (the source's name)
  CC50: 3980 nM
[11]; Log10 Concentration −4.0
  Percent Growth: −100%
[11]; Log10 Concentration −5.0
  Percent Growth: −100%
[11]; Log10 Concentration −6.0
  Percent Growth: 25%
[11]; Log10 Concentration −7.0
  Percent Growth: 94%
[11]; Log10 Concentration −8.0
  Percent Growth: 91%
[12]
  TGI: 3.05E−6
[12]; Homo sapiens
  GI50: 1020 nM
[12]; [16]
  CC50: 9110 nM
[12]; Log10 Concentration −4.0
  Percent Growth: −63%
[12]; Log10 Concentration −5.0
  Percent Growth: −54%
[12]; Log10 Concentration −6.0
  Percent Growth: 51%
[12]; Log10 Concentration −7.0
  Percent Growth: 88%
[12]; Log10 Concentration −8.0
  Percent Growth: 83%
[13]
  TGI: 2.70E−6
[13]; Homo sapiens
  GI50: 1400 nM
  LC50: 5190 nM
[13]; Log10 Concentration −4.0
  Percent Growth: −100%
[13]; Log10 Concentration −5.0
  Percent Growth: −100%
[13]; Log10 Concentration −6.0
  Percent Growth: 76%
[13]; Log10 Concentration −7.0
  Percent Growth: 83%
[13]; Log10 Concentration −8.0
  Percent Growth: 108%
[14]
  TGI: 2.91E−6
[14]; Homo sapiens, U-251
  GI50: 1570 nM
[14]; Homo sapiens, U-251, read-out: LC50 (the source's name)
  CC50: 5400 nM
[14]; Log10 Concentration −4.0
  Percent Growth: −100%
[14]; Log10 Concentration −5.0
  Percent Growth: −100%
[14]; Log10 Concentration −6.0
  Percent Growth: 87%
[14]; Log10 Concentration −7.0
  Percent Growth: 87%
[14]; Log10 Concentration −8.0
  Percent Growth: 90%
[15]
  TGI: 3.36E−6
[15]; Homo sapiens
  GI50: 1830 nM
  LC50 (concentration killing 50% of cells): 6180 nM
[15]; Log10 Concentration −4.0
  Percent Growth: −89%
[15]; Log10 Concentration −5.0
  Percent Growth: −89%
[15]; Log10 Concentration −6.0
  Percent Growth: 100%
[15]; Log10 Concentration −7.0
  Percent Growth: 99%
[15]; Log10 Concentration −8.0
  Percent Growth: 96%

Source: patent US8680133B2, “Alkyl indole-3-carbinol-derived antitumor agents” (The Ohio State University Research Foundation, priority 2009, dated 2014)
